*1 amine or outer side, *2 acyl side, *3 side chain or, on linkers, in order; H or OH if unused. Where a SMILES comes first, the peptide text is derived from it. Side-chain parts run from the residue outwards. The star is where a group is joined. C18 diacid = O=C(O)CCCCCCCCCCCCCCCCC(=O)*; γGlu = O=C(O)[C@H](CCC(=O)[*:2])N[*:1]; Isovaleryl = CC(C)CC(=O)*; AEEA = NCCOCCOCC(=O)O
target: T1, Human Neuropeptide Y2 Receptor (Homo sapiens, UniProt P49146); test: Radioligand binding competition assay (RLB); settings: Table 3; human 125I-PYY (1-36) 0.02 nM, Y2 receptor membranes; read-out: Ki
T1 construct: purchased CHEMICON HTS066M
T1 sequence (P49146 1-381): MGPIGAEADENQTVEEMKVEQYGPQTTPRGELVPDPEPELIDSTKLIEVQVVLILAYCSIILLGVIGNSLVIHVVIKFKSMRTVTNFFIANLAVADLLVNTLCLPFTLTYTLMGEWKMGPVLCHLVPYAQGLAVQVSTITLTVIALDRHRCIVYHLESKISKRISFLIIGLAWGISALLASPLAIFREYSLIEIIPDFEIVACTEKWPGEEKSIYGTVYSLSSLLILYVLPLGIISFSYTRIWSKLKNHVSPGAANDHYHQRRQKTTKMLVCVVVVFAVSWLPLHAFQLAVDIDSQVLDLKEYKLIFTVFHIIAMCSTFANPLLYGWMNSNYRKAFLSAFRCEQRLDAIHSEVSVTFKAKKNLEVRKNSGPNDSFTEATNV
Outline: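 IC50 values come from nonlinear regression of sigmoidal dose-response curves of filter-bound radioactivity. Peptides competed with radioligand at human Y2 receptor membranes (0.5 μg protein/well) for 2 h at room temperature in pH 7.4 HEPES buffer containing Mg2+, Ca2+ and 0.2% ovalbumin.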

| SMILES | Ki [nM] |
| --- | --- |
| CC[C@H](C)[C@H](NC(=O)[C@H](Cc1c[nH]c2ccccc12)NC(=O)[C@H](CC(N)=O)NC(=O)[C@H](Cc1ccc(O)cc1)NC(=O)[C@H](Cc1ccc(O)cc1)NC(=O)[C@H](Cc1c[nH]cn1)NC(=O)[C@H](CCCNC(=N)N)NC(=O)[C@H](CC(C)C)NC(=O)[C@H](CO)NC(=O)[C@@H](NC(=O)[C@H](Cc1ccc(O)cc1)NC(=O)[C@H](Cc1ccc(O)cc1)NC(=O)[C@H](CCCNC(=N)N)NC(=O)[C@H](CCC(N)=O)NC(=O)[C@H](CC(C)C)NC(=O)[C@H](CCC(=O)O)NC(=O)[C@H](CCC(=O)O)NC(=O)[C@@H]1CCCN1C(=O)[C@H](CO)NC(=O)[C@H](C)NC(=O)[C@H](CCC(=O)O)NC(=O)[C@H](CCC(=O)O)NC(=O)[C@H](CCC(=O)O)NC(=O)[C@@H]1CCCN1C(=O)[C@H](CCCCNC(=O)COCCOCCNC(=O)COCCOCCNC(=O)CC[C@H](NC(=O)CCCCCCCCCCCCCCCCC(=O)O)C(=O)O)NC(=O)[C@H](CCC(=O)O)NC(=O)[C@@H]1CCCN1C(=O)[C@H](C)NC(=O)CC(C)C)C(C)C)C(=O)N[C@H](C(=O)N[C@@H](CCCNC(=N)N)C(=O)N[C@@H](CCC(N)=O)C(=O)N[C@@H](CCCNC(=N)N)C(=O)N[C@@H](Cc1ccc(O)cc1)C(N)=O)[C@@H](C)O [Compound 44, N{alpha-4}-(3-methylbutanoyl)-N{epsilon-7}-[2-(2-{2-[2-(2-{2-[(4S)-4-carboxy-4-(17-carboxyheptadecanamido)butanamido]ethoxy}ethoxy)acetamido]ethoxy}ethoxy)acetamido]-[4A,7K,9E,11E,18Q,22V,28Y,30W,31I]hPYY (4-36)] | 4.44 |
| CC(C)CC(=O)N[C@@H](C)C(=O)N1CCC[C@H]1C(=O)N[C@@H](CCC(=O)O)C(=O)N[C@@H](CCCCNC(=O)COCCOCCNC(=O)COCCOCCNC(=O)CC[C@H](NC(=O)CCCCCCCCCCCCCCCCC(=O)O)C(=O)O)C(=O)N1CCC[C@H]1C(=O)N[C@@H](CCC(=O)O)C(=O)N[C@@H](CCC(=O)O)C(=O)N[C@@H](CCC(=O)O)C(=O)N[C@@H](C)C(=O)N[C@@H](CO)C(=O)N1CCC[C@H]1C(=O)N[C@@H](CCC(=O)O)C(=O)N[C@@H](CO)C(=O)N[C@@H](CC(C)C)C(=O)N[C@@H](CCC(N)=O)C(=O)N[C@@H](CCCNC(=N)N)C(=O)N[C@@H](Cc1ccc(O)cc1)C(=O)N[C@@H](Cc1ccc(O)cc1)C(=O)N[C@H](C(=O)N[C@@H](CO)C(=O)N[C@@H](CC(C)C)C(=O)N[C@@H](CCCNC(=N)N)C(=O)N[C@@H](Cc1c[nH]cn1)C(=O)N[C@@H](Cc1ccc(O)cc1)C(=O)N[C@@H](Cc1ccc(O)cc1)C(=O)N[C@@H](CC(N)=O)C(=O)N[C@@H](Cc1c[nH]c2ccccc12)C(=O)N[C@@H](CC(C)C)C(=O)N[C@H](C(=O)N[C@@H](CCCNC(=N)N)C(=O)N[C@@H](CCC(N)=O)C(=O)N[C@@H](CCCNC(=N)N)C(=O)N[C@@H](Cc1ccc(O)cc1)C(N)=O)[C@@H](C)O)C(C)C [Compound 45, N{alpha-4}-(3-methylbutanoyl)-N{epsilon-7}-[2-(2-{2-[2-(2-{2-[(4S)-4-carboxy-4-(17-carboxyheptadecanamido)butanamido]ethoxy}ethoxy)acetamido]ethoxy}ethoxy)acetamido]-[4A,7K,9E,11E,16S,18Q,22V,28Y,30W,31L]hPYY (4-36)] (Isovaleryl-APEK([AEEA-AEEA-γGlu-C18 diacid])PEEEASPESLQRYYVSLRHYYNWLTRQRY-NH2) | 3.97 |
| CC(C)CC(=O)N[C@@H](C)C(=O)N1CCC[C@H]1C(=O)N[C@@H](CCC(=O)O)C(=O)N[C@@H](CCCCNC(=O)COCCOCCNC(=O)COCCOCCNC(=O)CC[C@H](NC(=O)CCCCCCCCCCCCCCCCC(=O)O)C(=O)O)C(=O)N1CCC[C@H]1C(=O)N1CCC[C@H]1C(=O)N[C@@H](C)C(=O)N[C@@H](CC(=O)O)C(=O)N[C@@H](C)C(=O)N[C@@H](CO)C(=O)N1CCC[C@H]1C(=O)N[C@@H](CCC(=O)O)C(=O)N[C@@H](CCC(=O)O)C(=O)N[C@@H](CC(C)C)C(=O)N[C@@H](CCC(N)=O)C(=O)N[C@@H](CCCNC(=N)N)C(=O)N[C@@H](Cc1ccc(O)cc1)C(=O)N[C@@H](Cc1ccc(O)cc1)C(=O)N[C@H](C(=O)N[C@@H](CO)C(=O)N[C@@H](CC(C)C)C(=O)N[C@@H](CCCNC(=N)N)C(=O)N[C@@H](Cc1c[nH]cn1)C(=O)N[C@@H](Cc1ccc(O)cc1)C(=O)N[C@@H](Cc1ccc(O)cc1)C(=O)N[C@@H](CC(N)=O)C(=O)N[C@@H](Cc1c[nH]c2ccccc12)C(=O)N[C@@H](CC(C)C)C(=O)N[C@H](C(=O)N[C@@H](CCCNC(=N)N)C(=O)N[C@@H](CCC(N)=O)C(=O)N[C@@H](CCCNC(=N)N)C(=O)N[C@@H](Cc1ccc(O)cc1)C(N)=O)[C@@H](C)O)C(C)C [Compound 47, N{alpha-4}-(3-methylbutanoyl)-N{epsilon-7}-[2-(2-{2-[2-(2-{2-[(4S)-4-carboxy-4-(17-carboxyheptadecanamido)butanamido]ethoxy}ethoxy)acetamido]ethoxy}ethoxy)acetamido]-[4A,7K,9P,10A,18Q,22V,28Y,30W,31L]hPYY (4-36)] | 0.42 |

Further lines, results first:

| Ki [nM] | SMILES |
| --- | --- |
| 38.9 | CC(C)CC(=O)N[C@@H](C)C(=O)N1CCC[C@H]1C(=O)N[C@@H](CCC(=O)O)C(=O)N[C@@H](CCCCNC(=O)COCCOCCNC(=O)COCCOCCNC(=O)CC[C@H](NC(=O)CCCCCCCCCCCCCCCCC(=O)O)C(=O)O)C(=O)N1CCC[C@H]1C(=O)N[C@@H](CCC(=O)O)C(=O)N[C@@H](CCC(=O)O)C(=O)N[C@@H](CC(=O)O)C(=O)N[C@H](C(=O)N[C@@H](CCC(=O)O)C(=O)N1CCC[C@H]1C(=O)N[C@@H](CCC(=O)O)C(=O)N[C@@H](CCC(=O)O)C(=O)N[C@@H](CC(C)C)C(=O)N[C@@H](CCC(N)=O)C(=O)N[C@@H](CCCNC(=N)N)C(=O)N[C@@H](Cc1ccc(O)cc1)C(=O)N[C@@H](Cc1ccc(O)cc1)C(=O)N[C@H](C(=O)N[C@@H](CO)C(=O)N[C@@H](CC(C)C)C(=O)N[C@@H](CCCNC(=N)N)C(=O)N[C@@H](Cc1c[nH]cn1)C(=O)N[C@@H](Cc1ccc(O)cc1)C(=O)N[C@@H](Cc1ccc(O)cc1)C(=O)N[C@@H](CC(N)=O)C(=O)N[C@@H](Cc1c[nH]c2ccccc12)C(=O)N[C@@H](CC(C)C)C(=O)N[C@H](C(=O)N[C@@H](CCCNC(=N)N)C(=O)N[C@@H](CCC(N)=O)C(=O)N[C@@H](CCCNC(=N)N)C(=O)N[C@@H](Cc1ccc(O)cc1)C(N)=O)[C@@H](C)O)C(C)C)[C@@H](C)O [Compound 48, N{alpha-4}-(3-methylbutanoyl)-N{epsilon-7}-[2-(2-{2-[2-(2-{2-[(4S)-4-carboxy-4-(17-carboxyheptadecanamido)butanamido]ethoxy}ethoxy)acetamido]ethoxy}ethoxy)acetamido]-[4A,7K,9E,12T,13E,18Q,22V,28Y,30W,31L]hPYY (4-36)] |
| 39.4 | CC(C)CC(=O)N[C@@H](C)C(=O)N1CCC[C@H]1C(=O)N[C@@H](CCC(=O)O)C(=O)N[C@@H](CCCCNC(=O)COCCOCCNC(=O)COCCOCCNC(=O)CC[C@H](NC(=O)CCCCCCCCCCCCCCCCC(=O)O)C(=O)O)C(=O)N[C@@H](C)C(=O)N[C@@H](CCC(=O)O)C(=O)N[C@@H](CCC(=O)O)C(=O)N[C@@H](CCC(=O)O)C(=O)N[C@@H](C)C(=O)N[C@@H](CO)C(=O)N1CCC[C@H]1C(=O)N[C@@H](CCC(=O)O)C(=O)N[C@@H](CCC(=O)O)C(=O)N[C@@H](CC(C)C)C(=O)N[C@@H](CCC(N)=O)C(=O)N[C@@H](CCCNC(=N)N)C(=O)N[C@@H](Cc1ccc(O)cc1)C(=O)N[C@@H](Cc1ccc(O)cc1)C(=O)N[C@H](C(=O)N[C@@H](CO)C(=O)N[C@@H](CC(C)C)C(=O)N[C@@H](CCCNC(=N)N)C(=O)N[C@@H](Cc1c[nH]cn1)C(=O)N[C@@H](Cc1ccc(O)cc1)C(=O)N[C@@H](Cc1ccc(O)cc1)C(=O)N[C@@H](CC(N)=O)C(=O)N[C@@H](Cc1c[nH]c2ccccc12)C(=O)N[C@@H](CC(C)C)C(=O)N[C@H](C(=O)N[C@@H](CCCNC(=N)N)C(=O)N[C@@H](CCC(N)=O)C(=O)N[C@@H](CCCNC(=N)N)C(=O)N[C@@H](Cc1ccc(O)cc1)C(N)=O)[C@@H](C)O)C(C)C [Compound 51, N{alpha-4}-(3-methylbutanoyl)-N{epsilon-7}-[2-(2-{2-[2-(2-{2-[(4S)-4-carboxy-4-(17-carboxyheptadecanamido)butanamido]ethoxy}ethoxy)acetamido]ethoxy}ethoxy)acetamido]-[4A,7K,8A,9E,11E,18Q,22V,28Y,30W,31L]hPYY (4-36)] (Isovaleryl-APEK([AEEA-AEEA-γGlu-C18 diacid])AEEEASPEELQRYYVSLRHYYNWLTRQRY-NH2) |
